Patent publication US20220363680A1, “PROCESSES FOR THE SYNTHESIS OF VALBENAZINE” (Neurocrine Biosciences, Inc., priority 2019, published 2022)

Key:
[1] = Stability of standard and sample solutions (4 mg/mL) for the HPLC method; assay type: physicochemical; conditions: 4 mg/mL in DI water:acetonitrile 50:50 v/v, ambient laboratory conditions
Protocol: Diluent (DI Water:Acetonitrile, 50:50, v/v).
Note: Standard solutions are stable for 4 days at ambient laboratory conditions.
Working Standard Solution (4 mg/mL of compound of Formula I).
Note: Sample solutions are stable for 4 days at ambient laboratory conditions.
Sample Solution (4 mg/mL of compound of Formula I).

[2] = Particle size distribution of manufacturing batches of the compound of Formula I; assay type: physicochemical; conditions: crystalline Form I batches
From the text: Manufacturing batches of(2R,3R,11bR)-3-isobutyl-9,10-dimethoxy-2,3,4,6,7,11b-hexahydro-1H-pyrido[2,1-a]isoquinolin-2-yl (S)-2-amino-3-methylbutanoate di(4-methylbenzenesulfonate) (i.e., the compound of Formula I) have been prepared in a similar manner as described herein and have the following particle size distribution characterizations, as shown in Table 3.
Four separate batches of (2R,3R,11bR)-3-Isobutyl-9,10-dimethoxy-2,3,4,6,7,11b-hexahydro-1H-pyrido[2,1-a]isoquinolin-2-yl (S)-2-amino-3-methylbutanoate di(4-methylbenzenesulfonate) were manufactured in a similar manner as described herein (i.e., Example 1) in compliance with applicable cGMPs for GLP use. Certain data are shown below in Table 10 for Example 1, Step E (i.e., Batch 073) and the four batches (i.e., Batches 084, 085, 086, and 087).

[3] = Table 3, listed as Batch 073, di(4-methylbenzenesulfonate)
[4] = Table 3, listed as Batch 084, di(4-methylbenzenesulfonate)
[5] = Table 3, listed as Batch 085, di(4-methylbenzenesulfonate)
[6] = Table 3, listed as Batch 086, di(4-methylbenzenesulfonate)
[7] = Table 3, listed as Batch 087, di(4-methylbenzenesulfonate)
[8] = Table 10, listed as Batch 073, di(4-methylbenzenesulfonate)
[9] = Table 10, listed as Batch 084, di(4-methylbenzenesulfonate)
[10] = Table 10, listed as Batch 085, di(4-methylbenzenesulfonate)
[11] = Table 10, listed as Batch 086, di(4-methylbenzenesulfonate)
[12] = Table 10, listed as Batch 087, di(4-methylbenzenesulfonate)

SMILES: COc1cc2c(cc1OC)[C@H]1C[C@@H](OC(=O)[C@@H](N)C(C)C)[C@H](CC(C)C)CN1CC2 [Compound of Formula I, (2R,3R,11bR)-3-isobutyl-9,10-dimethoxy-2,3,4,6,7,11b-hexahydro-1H-pyrido[2,1-a]isoquinolin-2-yl (S)-2-amino-3-methylbutanoate di(4-methylbenzenesulfonate)]
- Time for which solutions are stable [1]: 4 days
- Particle size distribution, D10 ([2]; Table 3): 3 µm
- Particle size distribution, D50 [2, 3]: 14 µm
- Particle size distribution, D90 [2, 3]: 45 µm
- Particle size distribution, D50 [2, 4]: 13 µm
- Particle size distribution, D90 [2, 4]: 43 µm
- Particle size distribution, D50 [2, 5]: 13 µm
- Particle size distribution, D90 [2, 5]: 44 µm
- Particle size distribution, D50 [2, 6]: 14 µm
- Particle size distribution, D90 [2, 6]: 48 µm
- Particle size distribution, D50 [2, 7]: 13 µm
- Particle size distribution, D90 [2, 7]: 45 µm
- Particle size distribution, D10 ([2]; Table 10): 3 μm
- Particle size distribution, D50 [2, 8]: 14 μm
- Particle size distribution, D90 [2, 8]: 45 μm
- Particle size distribution, D50 [2, 9]: 13 μm
- Particle size distribution, D90 [2, 9]: 43 μm
- Particle size distribution, D50 [2, 10]: 13 μm
- Particle size distribution, D90 [2, 10]: 44 μm
- Particle size distribution, D50 [2, 11]: 14 μm
- Particle size distribution, D90 [2, 11]: 48 μm
- Particle size distribution, D50 [2, 12]: 13 μm
- Particle size distribution, D90 [2, 12]: 45 μm
